Reference: US11358972B2, “Pentacyclic heterocycles” (Eisai R&D Management Co., Ltd., priority 2019, dated 2022)

Columns and labels:
[1] = system: Choline Acetyltransferase (ChAT) mRNA; assay: Measurement of choline acetyltransferase (ChAT) mRNA expression levels in the rat septal area; assay type: in vivo; conditions: po, SD male rats, medial septum, 24 hours after administration, read-out: Amount (%) increased from the amount of ChAT mRNA expression levels in the vehicle administration group; for change in vivo at 1 mg/kg: 1 mg/kg orally
Protocol: Measurement of Choline Acetyltransferase (ChAT) mRNA Expression Levels in the Rat Septal Area (1) Compound Administration
In this study, Sprague-Dawley male rats (Charles River Laboratories Japan, Inc.) with a body weight of about 250 to 350 g were used. The test compound was dissolved in 0.01 mol/L hydrochloric acid, and orally administered.
At 24 hours after the administration of the compound, the whole brain tissue was collected under pentobarbital anesthesia. The medial septum was isolated from whole brain on ice and frozen with liquid nitrogen, and then stored at −80° C.
(3) Measurement of ChAT mRNA Expression Levels
For RNA purification, RNeasy™ Plus Mini Kit (#74136: QIAGEN) was used in this study. RNA purification was performed by the method described in the kit After RNA purification, the total RNA concentration was measured by using QIAxpert Instrument (QIAGEN). cDNA was synthesized using SuperScript™ VILO™ cDNA Synthesis Kit (#11754: Thermo Fisher Scientific). The synthesis of cDNA was performed by the method described in the kit. The synthesized cDNA was diluted 4 times with RNase free water, and the diluted cDNA solution was used as a sample. Taqman™ Universal PCR Master Mix (#4304437: Thermo Fisher Scientific), Taqman™ Gene Expression Assays, INVENTORIED (#4331182: Thermo Fisher Scientific), RNase free water, and the cDNA solution were mixed in amounts of 10 μL, 1 μL, 4 μL, and 5 μL, respectively, and the resulting mixture was used as a measurement sample solution. Quantitative polymerase chain reaction (qPCR) was conducted using ABI PRISM™ 7900HT (Thermo Fisher Scientific) by a fluorescence probe method. Analysis was performed by SDS 2.4 (Thermo Fisher Scientific). The results were calculated by the percentage of the amount of ChAT mRNA expression levels in the compound administration group increased from the amount of ChAT mRNA expression levels in the vehicle administration group.

[2] = system: Rat primary septal neuron culture; assay: Measurement of acetylcholine (ACh) release in the rat primary septal neuron culture system; assay type: cell-based; conditions: 24 h, rat primary septal neurons, with NGF, ACh release measured by HPLC one day after compound addition, read-out: Concentration (μM) showing a 20% or more increase from the amount of ACh in the control group
Description: Measurement of Acetylcholine (ACh) Release in the Rat Primary Septal Neuron Culture System
(1) Rat Primary Septal Neuron Culture
The septal area was isolated from Sprague-Dawley (SD) rats (Charles River Laboratories Japan, Inc.) at a fetal age of 18 days, and cultured. Specifically, fetuses were removed from pregnant rats under isoflurane anesthesia. The brain was extracted from each fetus, and immersed in ice-cooled L-15 medium (11415-064, Thermo Fisher Scientific). The septal area was dissected from the extracted brain under a stereoscopic microscope. The dissected septal area was treated in 0.25% trypsin (15050-065, Thermo Fisher Scientific) and 0.01% DNase (D5025-150KU, Sigma) at 37° C. for 30 minutes, thereby dispersing the cells. In this case, the enzyme reaction was terminated by adding inactivated horse serum (26050-088, Thermo Fisher Scientific). The enzyme-treated solution was centrifuged at 1000 rpm for 3 minutes, and the supernatant was removed. A medium in an amount of 10 mL was added to the obtained cell mass. The medium used was Dulbecco's Modified Eagle's Medium (044-29765, WAKO) supplemented with N2 supplement (17502-048, Thermo Fisher Scientific), 1 mM sodium pyruvate (11360-070, Thermo Fisher Scientific), and Penicillin-Streptomycin (15140-1221, Thermo Fisher Scientific). The cells of the cell mass to which the medium was added were redispersed by gentle pipetting, and then centrifuged again at 1000 rpm for 3 minutes, and the supernatant was removed. The medium in an amount of 10 mL was added to the obtained cell mass, and the cell dispersion was filtered through a 40-μm nylon mesh (Cell Strainer) to remove the cell mass, thereby obtaining a neuronal cell suspension. The neuronal cell suspension was diluted with the medium, and 10% inactivated bovine serum (26140-079, Thermo Fisher Scientific) and 10% inactivated horse serum were added. Thereafter, 100 μL/well of the suspension was seeded in a 96-well plate (354461, CORNING) pre-coated with poly-D-lysine so that the initial culture density was 1.2×10^5 cells/cm^2. After the seeded cells were cultured under 5% CO2-95% air in a 37° C. incubator for 2 days, the entire medium was replaced with 120 μL of fresh medium, and the cells were subsequently cultured for 5 days.
On the 7th day of culture, compounds were added in the following manner. A solution of the test compound in DMSO was diluted with the medium so that the concentration was 10 times higher than the final concentration. Nerve Growth Factor (450-01, PEPRO TECH, INC.) was prepared at […]. These two solutions were added each in an amount of 15 μL/well, and the mixture was mixed well. The final DMSO concentration was 0.1% or less. Moreover, only DMSO and NGF were added to the control group.
(3) ACh Release Measurement
One day after the compound addition, an amount of ACh release was measured by HPLC in the following manner. A warmed buffer was added at 100 μL/well to the well after the medium was eliminated, and the buffer was immediately removed. Thereafter, a buffer to which 10 μm choline, 10 μm physostigmine, and 6 mM KCl were added was added at 120 μL/well. The buffer was prepared by adding 125 mM NaCl, 25 mM 4-(2-hydroxyethyl)-1-piperazineethanesulfonic acid, 1.2 mM KH2PO4, 1.2 mM MgSO4, 2.2 mM CaCl2 (2H2O), and 10 mM glucose to sterilized water, and the final pH of the solution was set to 7.4. After the 96-well plate to which the buffer was added was incubated under 5% CO2-95% air in a 37° C. incubator for 40 minutes, 80 μL of buffer was collected. An internal standard solution IPHC (5×10^−7 M) was added in an amount of 6 μL to the collected buffer, and the buffer was transferred to a tube for HPLC measurement and subjected to HPLC measurement. […]

Compound	change in vivo at 1 mg/kg [1]	minimal effective concentration [2]	change in vivo at 3 mg/kg ([1]; 3 mg/kg orally)
CN1CCc2c(sc3nc4n(c(=O)c23)C(C)(C)CC(=O)N2C[C@H](F)C[C@H]42)C1 [Example 10, (2R,15bR)-2-fluoro-7,7,12-trimethyl-1,2,3,6,7,10,11,12,13,15b-decahydro-5H,9H-pyrido[4″,3″:4′,5′]thieno[2′3′:4,5]pyrimido[1,2-a]pyrrolo[2,1-c][1,4]diazepine-5,9-dione]	50.6%	0.03 µM	–
CN1CCc2c(sc3nc4n(c(=O)c23)[C@H]2COC[C@H]2C(=O)N(C)C4)C1 [Example 11, (+)-(3a,14a-cis)-5,10-dimethyl-1,3,3a,5,6,9,10,11,12,14a-decahydrofuro[3,4-f]pyrido[4″,3″:4′,5′]thieno[2′,3′:4,5]pyrimido[1,2-a][1,4]diazepine-4,13-dione]	54.7%	0.03 µM	–
CN1Cc2nc3c(oc4cc(C(F)(F)F)ccc43)c(=O)n2[C@H]2CCC[C@@H]2C1=O [Example 12, (3aS,14aS)-5-methyl-10-(trifluoromethyl)-2,3,3a,5,6,14a-hexahydro-1H-benzofuro[3′,2′:4,5]pyrimido[1,2-a]cyclopenta[f][1,4]diazepine-4,13-dione]	44.7%	0.03 µM	–
CN1CCc2sc3c(=O)n4c(nc3c2C1)CN(C)C(=O)[C@@H]1CCC[C@H]14 [Example 14, (3aR,14aR)-5,9-dimethyl-2,3,3a,5,6,8,9,10,11,14a-decahydro-1H-cyclopenta[f]pyrido[3″,4″:4′,5′]thieno[3′,2′:4,5]pyrimido[1,2-a][1,4]diazepine-4,13-dione]	63.6%	0.03 µM	–
CN1C[C@H]2C(=O)N(C)Cc3nc4sc5c(c4c(=O)n3[C@H]2C1)CC[C@@H](F)C5 [Example 15, (3aR,10R,14aR)-10-fluoro-2,5-dimethyl-2,3,3a,5,6,9,10,11,12,14a-decahydro-1H-benzo[4′,5′]thieno[2′,3′:4,5]pyrimido[1,2-a]pyrrolo[3,4-f][1,4]diazepine-4,13-dione]	49%	0.3 µM	–
COCCN1CCc2c(sc3nc4n(c(=O)c23)[C@H]2CCC[C@@H]2C(=O)N(C)C4)C1 [Example 16, (3aS,4aS)-10-(2-methoxyethyl)-5-methyl-2,3,3a,5,6,9,10,11,12,14a-decahydro-1H-cyclopenta[f]pyrido[4″,3″:4′,5′]thieno[2′,3′:4,5]pyrimido[1,2-a][1,4]diazepine-4,13-dione]	–	0.03 µM	42.5%
